According to US8921372B2, “Inhibitors of hepatitis C virus” (Theravance Biopharma R&D IP, LLC, priority 2010, dated 2014):
Where two headings read alike, the source gives them in different places.

Experiments:
[1] = test system: HCV genotype 1a replicon cell line (APC89; Huh7.5 cell background); assay: HCV Genotype 1a Replicon Assay (NS3-specific protease activity readout); format: cell-based; settings: Hepatitis C virus
Description: Assay 2: HCV Genotype 1a Replicon Assay
The HCV genotype 1a replicon cell line was obtained from Apath LLC (APC89; Huh7.5 cell background). This subgenomic replicon contains the N-terminus of the HCV core protein fused to the neomycin-resistance selectable marker. The EMCV IRES lies downstream and drives expression of the non-structural proteins NS3-NS5B. Compound potencies were determined using the NS3-specific protease activity in lysates as a measurement of compound inhibition of replicon levels.
(§1) Cells were grown at 37° C. in a 5% CO2 humidified incubator in DMEM (Invitrogen) with 10% FBS (HyClone), 1×NEAA (Invitrogen), 1× Pen-Strep (Invitrogen), and 850 μg/mL G418 (Invitrogen). On day 1 of the assay, cells were plated at 15,000 cells/well in black 96-well tissue culture plates (Costar) in 200 μL media lacking G418. Four hours later, once the cells had adhered, the media was removed and replaced with media (no G418) containing dose-responses of test compounds. Compounds were initially diluted in DMSO and then diluted another 200× in media to bring the final DMSO concentration down to 0.5%. The cells were incubated with test compounds for 48 or 72 hours. At the end of the incubation period, media and compound were removed from the plates.
To determine the NS3-specific protease activity in lysates, the cells were lysed at room temperature in 50 μL/well of 50 mM Hepes pH 7.5, 150 mM NaCl, 15% Glycerol, 0.15% Triton X-100, 10 mM DTT for 20 minutes with shaking. 50 μL of an NS3/4a protease-specific FRET substrate (Anaspec RET S1 Cat#22991) was then added to the wells at a final concentration of 15 μM. The plates were incubated at 37° C. for 20 minutes, which corresponds to a timepoint at which the protease activity is still in the linear phase. Protease activity was determined by measuring fluorescence (Excitation: 340 nm; Emission: 509 nm).
To analyze the data, the fluorescence was plotted vs. the compound concentration, and EC50 values were determined from a 4-parameter robust fit model using GraphPad Prism software.

[2] = test system: HCV genotype 1b replicon cell line (APC144; Huh7 cell background); assay: HCV Genotype 1b Replicon Assay (Renilla luciferase readout); format: cell-based; settings: Hepatitis C virus, Huh-7; read-out: Genotype 1b (pEC50 class, HCV genotype 1b replicon assay) (converted)
From the text: Assay 1: HCV Genotype 1b Replicon Assay
The HCV genotype 1b replicon cell line was obtained from Apath LLC (Brooklyn, N.Y.) (APC144; Huh7 cell background). This subgenomic replicon contains the N-terminus of the HCV core protein fused to the neomycin-resistance selectable marker. The EMCV IRES lies downstream and drives expression of humanized Renilla luciferase fused to the non-structural proteins NS3-NS5B. This cell line was used to determine compound potency using the luciferase activity readout as a measurement of compound inhibition of replicon levels.
as §1, with “500” for “850”, “10,000” for “15,000”, “white” for “black”, “have” for “had”, “48” for “48 or 72”, “plates and the luciferase activity was determined using Promega Renilla-Glo reagents.” for “plates.”
To analyze the data, the luciferase activity was plotted vs. the compound concentration, and EC50 values were determined from a 4-parameter robust fit model with the GraphPad Prism software package (GraphPad Software, Inc., San Diego, Calif.). Results are expressed as the negative decadic logarithm of the EC50 value, pEC50.
Test compounds having a higher pEC50 value in this assay show greater inhibition of HCV genotype 1b replication.

[3] = compounds incubated for 48 hours, read-out: Genotype 1a (pEC50 class, HCV genotype 1a replicon assay), * results (converted)
[4] = 72 hour incubation, read-out: Genotype 1a (pEC50 class, HCV genotype 1a replicon assay) (converted)

SMILES	EC50 [1, 3] [nM]	EC50 [2] [nM]	EC50 [1, 4] [nM]
CNC(=O)N1CCN(c2ccc(C(=O)Nc3ccc(-c4ccc(-c5c[nH]c([C@@H]6CCCN6C(=O)[C@@H](NC(=O)OC)C(C)C)n5)cc4)cc3)cn2)CC1 [Example 10, ((S)-2-Methyl-1-{(S)-2-[4-(4′-{[6-(4-methylcarbamoyl-piperazin-1-yl)-pyridine-3-carbonyl]-amino}-biphenyl-4-yl)-1H-imidazol-2-yl]-pyrrolidine-1-carbonyl}-propyl)-carbamic acid methyl ester]	0.1 to 1	< 0.1	–
CNC(=O)N1CCN(c2ccc(C(=O)Nc3ccc(-c4ccc(-c5nc([C@@H]6CCCN6C(=O)[C@@H](NC(=O)OC)C(C)C)[nH]c5Cl)cc4)cc3)cc2)CC1 [Example 11, {(S)-1-[(S)-2-(5-Chloro-4-{4′-[4-(4-methylcarbamoyl-piperazin-1-yl)-benzoylamino]-biphenyl-4-yl}-1H-imidazol-2-yl)-pyrrolidine-1-carbonyl]-2-methyl-propyl}-carbamic acid methyl ester]	0.1 to 1	< 0.1	–
COC(=O)N[C@H](C(=O)N1CCC[C@H]1c1nc(-c2ccc(-c3ccc(NC(=O)c4ccc(N5CCN(C(=O)C6CC6)C[C@H]5C)nc4)cc3)cc2)c[nH]1)C(C)C [Example 12, ((S)-1-{(S)-2-[4-(4′-{[6-((R)-4-Cyclopropanecarbonyl-2-methyl-piperazin-1-yl)-pyridine-3-carbonyl]-amino}-biphenyl-4-yl)-1H-imidazol-2-yl]-pyrrolidine-1-carbonyl}-2-methyl-propyl)-carbamic acid methyl ester]	–	< 0.1	0.1 to 1
COC(=O)N[C@H](C(=O)N1CCC[C@H]1c1nc(-c2ccc(-c3ccc(NC(=O)c4ccc(N5CCN(C(=O)[C@H]6CC6(C)C)C[C@@H]5C)nc4)cc3)cc2)c[nH]1)C(C)C [Example 13, [(S)-1-((S)-2-{4-[4′-({6-[(S)-4-((S)-2,2-Dimethyl-cyclopropane-carbonyl)-2-methyl-piperazin-1-yl]-pyridine-3-carbonyl}-amino)-biphenyl-4-yl]-1H-imidazol-2-yl}-pyrrolidine-1-carbonyl)-2-methyl-propyl]-carbamic acid methyl ester]	–	< 0.1	< 0.1
COC(=O)N[C@H](C(=O)N1CCC[C@H]1c1nc(-c2ccc(-c3ccc(NC(=O)c4ccc(N5CCN(C(=O)[C@H]6CC6(C)C)C[C@H]5C)nc4)cc3)cc2)c[nH]1)C(C)C [Example 14, [(S)-1-((S)-2-{4-[4′-({6-[(R)-4-((S)-2,2-Dimethyl-cyclopropane-carbonyl)-2-methyl-piperazin-1-yl]-pyridine-3-carbonyl}-amino)-biphenyl-4-yl]-1H-imidazol-2-yl}-pyrrolidine-1-carbonyl)-2-methyl-propyl]-carbamic acid methyl ester]	–	< 0.1	< 0.1
COC(=O)N[C@H](C(=O)N1CCC[C@H]1c1nc(-c2ccc(-c3ccc(NC(=O)c4ccc(N5CCN(C(=O)[C@]6(C)CCCN6C(C)=O)C[C@H]5C)nc4)cc3C)cc2)c[nH]1)C(C)C [Example 15, [(S)-1-((S)-2-{5-[4′-({6-[(R)-4-((S)-1-Acetyl-2-methyl-pyrrolidine-2-carbonyl)2-methyl-piperazin-1-yl]-pyridine-3-carbonyl}-amino)-2′-methyl-biphenyl-4-yl]-1H-imidazol-2-yl}-pyrrolidine-1-carbonyl)-2-methyl-propyl]-carbamic acid methyl ester]	–	< 0.1	< 0.1
COC(=O)N[C@H](C(=O)N1CCC[C@H]1c1nc(-c2ccc(-c3ccc(NC(=O)c4ccc(N5CCN(C(=O)C6CC6)C[C@H]5C)nc4)cc3C)cc2)c[nH]1)C(C)C [Example 17]	–	< 0.1	0.1 to 1
CNC(=O)N1CCN(c2ccc(C(=O)Nc3ccc(-c4ccc(-c5c[nH]c([C@@H]6CCCN6C(=O)[C@@H](NC(=O)OC)C(C)C)n5)cc4)c(C)c3)cn2)[C@H](C)C1 [Example 18]	–	< 0.1	0.1 to 1
COC(=O)N[C@H](C(=O)N1CCC[C@H]1c1nc(-c2ccc(-c3ccc(NC(=O)c4ccc(N5CCN(C(=O)c6c[nH]cn6)C[C@H]5C)nc4)cc3C)cc2)c[nH]1)C(C)C [Example 19]	–	< 0.1	0.1 to 1
CCOc1cc(NC(=O)c2ccc(N3CCN(C(=O)[C@]4(C)CCCN4C(=O)[C@@H](NC(=O)OC)C(C)C)C[C@H]3C)nc2)ccc1-c1ccc(-c2c[nH]c([C@@H]3CCCN3C(=O)[C@@H](NC(=O)OC)C(C)C)n2)cc1 [Example 21, [(S)-1-((S)-2-{4-[2′-Ethoxy-4′-({6-[(R)-4-((S)-1-{(S)-2-methoxycarbonylamino-3-methyl-butyryl}-2-methyl-pyrrolidine-2-carbonyl)-2-methyl-piperazin-1-yl]-pyridine-3-carbonyl}-amino)-biphenyl-4-yl]-1H-imidazol-2-yl}-pyrrolidine-1-carbonyl)-2-methyl-propyl]-carbamic acid methyl ester]	–	< 0.1	< 0.1
COC(=O)N[C@H](C(=O)N1CCC[C@H]1c1nc(-c2ccc(-c3ccc(NC(=O)c4ccc(N5CCN(C(=O)[C@H]6CC6(C)C)C[C@H]5C)nc4)cc3OC(F)(F)F)cc2)c[nH]1)C(C)C [Example 25, [(S)-1-((S)-2-{5-[4′-({6-[(R)-4-((S)-2,2-Dimethyl-cyclopropanecarbonyl)-2-methyl-piperazin-1-yl]-pyridine-3-carbonyl}-amino)-2′-trifluoromethoxy-biphenyl-4-yl]-1H-imidazol-2-yl}-pyrrolidine-1-carbonyl)-2-methyl-propyl]-carbamic acid methyl ester]	–	< 0.1	< 0.1
CNC(=O)N1CCN(c2ccc(C(=O)Nc3ccc(-c4ccc(-c5c[nH]c([C@@H]6CCCN6C(=O)[C@@H](NC(=O)OC)C(C)C)n5)cc4)c(OC(F)(F)F)c3)cn2)[C@H](C)C1 [Example 26]	–	< 0.1	< 0.1
COCC(=O)N1CCC[C@@]1(C)C(=O)N1CCN(c2ccc(C(=O)Nc3cc(OC(F)(F)F)c(-c4ccc(-c5c[nH]c([C@@H]6CCCN6C(=O)[C@@H](NC(=O)OC)C(C)C)n5)cc4)cc3OC)cn2)[C@H](C)C1 [Example 27-31]	–	< 0.1	< 0.1
COC(=O)N[C@H](C(=O)N1CCC[C@H]1c1nc(-c2ccc(-c3cc(F)c(NC(=O)c4ccc(N5CCN(C(=O)c6c[nH]cn6)C[C@H]5C)nc4)cc3OC(F)(F)F)cc2)c[nH]1)C(C)C [Example 27-33]	–	< 0.1	< 0.1
COC(=O)N[C@H](C(=O)N1CCC[C@H]1c1nc(-c2ccc(-c3cc(F)c(NC(=O)c4ccc(N5CCN(C(=O)c6cc[nH]n6)C[C@H]5C)nc4)cc3OC(F)(F)F)cc2)c[nH]1)C(C)C [Example 27-34]	–	< 0.1	< 0.1
COC(=O)N[C@H](C(=O)N1CCC[C@H]1c1nc(-c2ccc(-c3cc(F)c(NC(=O)c4ccc(N5CCN(C(=O)Cn6cccn6)C[C@H]5C)nc4)cc3OC(F)(F)F)cc2)c[nH]1)C(C)C [Example 27-36]	–	< 0.1	< 0.1
COC(=O)N[C@H](C(=O)N1CCC[C@H]1c1nc(-c2ccc(-c3cc(F)c(NC(=O)c4ccc(N5CCN(C(=O)CNC(C)=O)C[C@H]5C)nc4)cc3OC(F)(F)F)cc2)c[nH]1)C(C)C [Example 27-37]	–	< 0.1	< 0.1
COCCNC(=O)N1CCN(c2ccc(C(=O)Nc3cc(OC(F)(F)F)c(-c4ccc(-c5c[nH]c([C@@H]6CCCN6C(=O)[C@@H](NC(=O)OC)C(C)C)n5)cc4)cc3F)cn2)[C@H](C)C1 [Example 27-38]	–	< 0.1	< 0.1
